Test results as given in patent US4136188A, “Treatment of diabetes with 2-substituted-1,3-diazacyclic compounds” (priority 1976, dated 1979).
Blank lines part the entries; values can stand above or below the molecule they belong to.

Columns and labels:
blood glucose [1] = experiment: Hypoglycemic activity: dose-effect relationship in normal rats; format: in vivo, male Wistar rats
Protocol: Five male Wistar rats weighing about 170g were used at each dosage level. […] 2, 3 and 5 hours after administration, a blood sample was taken from the tail vein of the rat and assayed for glucose by the glucose oxidase method.

[2] = system: immunoreactive insulin (IRI); experiment: Insulin releasing action; format: in vivo, male Wistar rat
Protocol: A saline solution containing a test compound was injected into the femoral vein of a normal male Wistar rat weighing about 200 g under pentobarbital anesthesia (5 rats/group). Control rats received a saline injection. Blood samples were taken from the tail vein before and 10, 20, 30 and 40 minutes after injection of the test compound, and were assayed for immunoreactive insulin (IRI) by the method of C. R. Morgan et al (Diabetes, 12, 115.1963).

blood glucose [3] = experiment: Glucose tolerance test in streptozotocin-induced mildly diabetic rats; format: in vivo, male Wistar rats (streptozotocin diabetic)
Protocol: An aqueous solution or suspension of a test compound was orally administered to male Wistar rats which had not been fed for 24 hours prior to oral administration and which had been rendered diabetic for about 2 months by a single intravenous injection of streptozotocin (20 mg/kg body weight). Control diabetic rats received water. Unfed (fasted) and fed blood glucose levels of the rats were 89 ± 1~103 ± 4 mg/dl and 123 ± 2~189 ± 11 mg/dl, respectively. […] Blood samples were taken from the tail vein just before and 15, 30, 60 and 90 minutes after glucose loading, and were assayed for blood glucose. The glucose tolerance of the rats was estimated by the increase in blood glucose during the 90 minutes after glucose loading, i.e., [formula]

serum lactate = experiment: Effect on serum lactate level; format: in vivo, male Wister rat; details: 200 mg/kg daily oral for 4 days; for Percent of Initial Serum Lactate, 24 hrs: just before the 2nd dosing; for Percent of Initial Serum Lactate, 76 hrs: 3 hours after the last dosing
Protocol: An aqueous solution or suspension of a test compound was orally administered to a normal male Wister rat weighing about 200 g at a daily dose of 200 mg/kg body weight for 4 days (5 rats/group). Blood samples were taken consecutively from the tail vein, and were assayed for serum lactate by the method of Hans-Jurgens Hohorst (Methods of Enzymatic Analysis, ed. by Hans Ulrich Bergmayer, Academic Press Inc., New York, 1965).

blood glucose [4] = experiment: Glucose tolerance test in normal rats; format: in vivo, male Wistar rats
Protocol: Five male Wistar rats weighing about 200g were used at each dose level. An aqueous solution or suspension of a test compound was orally administered by means of a stomach tube to each rat which had not been fed for 24 hours before administration. […] Blood samples were taken from the tail vein just before and 15, 30, 60 and 90 minutes after glucose loading, and were assayed for blood glucose. The glucose tolerance of the rats was estimated by the increase in blood glucose during the 90 minutes after glucose loading [formula]

serum lipids = experiment: Long-term administration in streptozotocin-induced diabetic rats: serum lipids; format: in vivo, male Wistar rats (streptozotocin diabetic); details: for hyperlipidemia / serum triglyceride tendency (in words): long-term administration, diabetic rats
Protocol: (§1) Diabetes was induced in male Wistar rats weighing about 170 g by a single intraperitoneal (60 mg/kg body weight) or intravenous (35 mg/kg) injection of streptozotocin. […] These rats were treated with Compound A, tolubutamide or phenformin at a daily oral dose of 25, 50 or 10 mg/kg body weight, respectively. Control diabetic rats received no treatment. The treatment was started 1 month after streptozotocin injection and continued for 4 (tolubutamide and phenformin) or 5 months (Compound A).
(§2) At the end of the experiment, the rats were sacrificed for histological examination of the kidneys and the liver and for determination of serum lipids.

[5] = Acute toxicity in rats by oral administration; details: rat, in vivo, male Donryu rats, mortality on the 7th day, Litchfield and Wilcoxon
Protocol: Acute Toxicity tests were carried out in rats by oral administration. Each LD50 was calculated from the mortality percentage on the 7th day according to the method of Litchfield and Wilcoxon. Ten male rats of the Donryu strain were used at each dose level.

blood glucose [6] = experiment: Long-term administration in streptozotocin-induced diabetic rats: fed blood glucose; format: in vivo, male Wistar rats (streptozotocin diabetic); details: 485 ± 18 at start, control 415 ± 27
Protocol: as §1
Fed blood glucose levels of the rats were 485 ± 18 mg/dl at the start of the treatment and 415 ± 27 (control group), 423 ± 17 (Compound A group), 447 ± 15 (tolubutamide group) and 425 ± 29 mg/dl (phenformin group) at the end of the experiment.

platelet aggregation = experiment: Inhibitory action on collagen-induced platelet aggregation in platelet rich plasma; format: cell-based; details: concentration giving 50% inhibition of reaction rate of collagen-induced platelet aggregation, rat platelet rich plasma, 30° C; read-out: Inhibitory Action ID50
Protocol: Platelet rich plasma was prepared by centrifugation (1000 rpm, 5 min.) of fresh citrated rat blood. Fifty microliters of a solution containing a test compound at various concentrations were added to 0.4 ml of the platelet rich plasma, and the mixture was stirred for 1 minute at 1100 rpm and 30° C. Then, 50 μl of a collagen suspension was added to initiate platelet aggregation, which was measured turbidometrically according to G.V.R. Born (Nature, 194, 927, 1962). The ID50 values represent the concentration (mM) of the compound giving a 50% inhibition of the reaction rate of […] platelet aggregation.

kidneys = experiment: Long-term administration in streptozotocin-induced diabetic rats: histological examination of the kidneys; format: in vivo, male Wistar rats (streptozotocin diabetic)
Protocol: as §1, §2

[7] = 25 mg/kg oral, fasted normal rats
[8] = 10 mg/kg oral, 1 hour prior to glucose loading
[9] = 10 mg/kg oral, 1 hour prior to glucose loading, control 265 ± 21 (A), 206 ± 18 (B, C)
[10] = 10 mg/kg oral, 1 hour prior to glucose loading (1 g/kg i.p.), control 121 ± 14 (A), 127 ± 8 (B, C)
[11] = 25 mg/kg daily, 5 months, 7 rats
[12] = 25 mg/kg i.v., control 50 ± 8, 0-40 minutes
[13] = 10 mg/kg daily, 4 months, 7 rats, * = significant, p < 0.05 vs. diabetic control
[14] = 20 mg/kg oral, given 30 minutes prior to glucose loading
[15] = 50 mg/kg daily, 4 months, 8 rats

Molecule: 1-methyl-2-benzhydryliminoimidazolidine.hydroiodide [Example 4]
- Decrease in blood glucose (% based on the control), 3 hrs (blood glucose [1]; [7]): 32%
- Decrease in blood glucose (% based on the control), 5 hrs (blood glucose [1]; [7]): 19%

Molecule: 2-benzhydryliminoimidazolidine hydrochloride [Example 3]
- Decrease in blood glucose (% based on the control), 3 hrs (blood glucose [1]; [7]): 39%
- Decrease in blood glucose (% based on the control), 5 hrs (blood glucose [1]; [7]): 39%

Molecule: CN1CCNC1=NC(c1ccccc1)c1ccccc1 [Compound A, 1-methyl-2-benzhydryliminoimidazolidine]
- Insulin Released [ΣΔIRI (0-40)] ([2]; 25 mg/kg i.v., second column (control 42 ± 19), 0-40 minutes): 208 ± 21 μunit/ml serum
- Improvement of glucose tolerance (blood glucose [3]; [8]): 43.0%
- Increase in blood glucose during the 90 minutes after glucose loading, test compound (head [drawing 15]) (blood glucose [3]; [9]): 151 ± 43
- Percent of Initial Serum Lactate, 24 hrs (serum lactate): 114.9%
- Percent of Initial Serum Lactate, 76 hrs (serum lactate): 94.6%
- Increase in glucose tolerance (blood glucose [4]; [8]): 52.1%
- Increase in blood glucose during the 90 minutes after glucose loading, test compound (head [drawing 13]) (blood glucose [4]; [10]): 58 ± 4
- Serum cholesterol (serum lipids; [11]): 78.7 % of control
- Serum free fatty acid (serum lipids; [11]): 86.1 % of control
- Serum triglyceride (serum lipids; 25 mg/kg daily, 5 months, 7 rats, * = significant, p < 0.05 vs. diabetic control): 53.0 % of control
- LD50 at 168 h [5]: 660 mg/kg
- Fed blood glucose level at the end of the experiment (blood glucose [6]; 25 mg/kg daily oral, 5 months): 423 ± 17 mg/dL
- IC50 (platelet aggregation): 320 µM

Molecule: c1ccc(C(CC2=NCCN2)c2ccccc2)cc1 [Compound B, 2-(2,2-diphenylethyl)-2-imidazoline]
- Insulin Released [ΣΔIRI (0-40)] [2, 12]: 250 ± 13 μunit/ml serum
- Improvement of glucose tolerance (blood glucose [3]; [8]): 74.8%
- Increase in blood glucose during the 90 minutes after glucose loading, test compound (head [drawing 15]) (blood glucose [3]; [9]): 52 ± 12
- Percent of Initial Serum Lactate, 24 hrs (serum lactate): 139.6%
- Percent of Initial Serum Lactate, 76 hrs (serum lactate): 113.3%
- Increase in glucose tolerance (blood glucose [4]; [8]): 96.9%
- Increase in blood glucose during the 90 minutes after glucose loading, test compound (head [drawing 13]) (blood glucose [4]; [10]): 4 ± 12
- LD50 at 168 h [5]: 562 mg/kg
- IC50 (platelet aggregation): 50 µM

- IC50 (platelet aggregation): 120 µM
Molecule: CN1CCN=C1CC(c1ccccc1)c1ccccc1 [Compound C, 1-methyl-2-(2,2-diphenylethyl)-2-imidazoline]
- Insulin Released [ΣΔIRI (0-40)] [2, 12]: 214 ± 17 μunit/ml serum
- Improvement of glucose tolerance (blood glucose [3]; [8]): 17.5%
- Increase in blood glucose during the 90 minutes after glucose loading, test compound (head [drawing 15]) (blood glucose [3]; [9]): 170 ± 15
- Increase in glucose tolerance (blood glucose [4]; [8]): 26.0%
- Increase in blood glucose during the 90 minutes after glucose loading, test compound (head [drawing 13]) (blood glucose [4]; [10]): 94 ± 8

Molecule: CN1CCN(C(=O)c2ccccc2)C1=NC(c1ccccc1)c1ccccc1 [Compound D, 1-methyl-2-benzhydrylimino-3-benzoylimidazolidine]
- LD50 at 168 h [5]: > 1000 mg/kg
- IC50 (platelet aggregation): 270 µM

Molecule: CN1CCN(C(=O)c2cccs2)C1=NC(c1ccccc1)c1ccccc1 [Compound E, 1-methyl-2-benzhydrylimino-3-thienoylimidazolidine]
- LD50 at 168 h [5]: > 1000 mg/kg
- IC50 (platelet aggregation): 130 µM

- IC50 (platelet aggregation): 480 µM
Molecule: CN1CCN(C(=O)c2cccnc2)C1=NC(c1ccccc1)c1ccccc1 [Compound F, 1-methyl-2-benzhydrylimino-3-nicotinoyl-imidazolidine]

Molecule: CN1CCCC1=NC(c1ccccc1)c1ccccc1 [Compound Q, Benzhydryl Lactamimide, reference compound]
- Insulin Released [ΣΔIRI (0-40)] [2, 12]: 198 ± 16 μunit/ml serum

Molecule: CN1CCCC1=NC(c1ccccc1)c1ccccc1 [Compound Z, reference compound]
- Percent of Initial Serum Lactate, 24 hrs (serum lactate): 152.1%
- Percent of Initial Serum Lactate, 76 hrs (serum lactate): 218.8%

Molecule: [H]/N=C(/N)N/C(=N/[H])NCCc1ccccc1 [Phenformin, phenformin, reference compound]
- Percent of Initial Serum Lactate, 24 hrs (serum lactate): 196.6%
- Percent of Initial Serum Lactate, 76 hrs (serum lactate): 283.6%
- Decrease in blood glucose (% based on the control), 2 hrs (blood glucose [1]; Dose = 100 mg/kg oral): 10%
- Decrease in blood glucose (% based on the control), 3 hrs (blood glucose [1]; Dose = 100 mg/kg oral): 15%
- Decrease in blood glucose (% based on the control), 5 hrs (blood glucose [1]; Dose = 100 mg/kg oral): 15%
- Serum cholesterol (serum lipids; [13]): 180.0 % of control
- Serum free fatty acid (serum lipids; [13]): 157.0 % of control
- Serum triglyceride (serum lipids; [13]): 225.7 % of control
- hyperlipidemia / serum triglyceride tendency (in words) (serum lipids): increased tendency of hyperlipidemia
- Fed blood glucose level at the end of the experiment (blood glucose [6]; 10 mg/kg daily oral, 4 months): 425 ± 29 mg/dL

Molecule: CCCCNC(=O)NS(=O)(=O)c1ccc(C)cc1 [Tolubutamide, tolubutamide, reference compound]
- Insulin Released [ΣΔIRI (0-40)] ([2]; 50 mg/kg i.v., control 50 ± 8, 0-40 minutes): 189 ± 26 μunit/ml serum
- Insulin Released [ΣΔIRI (0-40)] ([2]; 50 mg/kg i.v., second column (control 42 ± 19), 0-40 minutes): 141 ± 14 μunit/ml serum
- Improvement of glucose tolerance (blood glucose [3]; [14]): 32.6%
- Increase in blood glucose during the 90 minutes after glucose loading, test compound (head [drawing 15]) (blood glucose [3]; 20 mg/kg oral, given 30 minutes prior to glucose loading, 3 rats, control 265 ± 21): 179 ± 23
- Decrease in blood glucose (% based on the control), 2 hrs (blood glucose [1]; [7]): 20%
- Decrease in blood glucose (% based on the control), 3 hrs (blood glucose [1]; [7]): 24%
- Decrease in blood glucose (% based on the control), 5 hrs (blood glucose [1]; [7]): 20%
- Increase in glucose tolerance (blood glucose [4]; [14]): 31.4%
- Increase in blood glucose during the 90 minutes after glucose loading, test compound (head [drawing 13]) (blood glucose [4]; 20 mg/kg oral, given 30 minutes prior to glucose loading (1 g/kg i.p.), control 121 ± 14): 83 ± 14
- Serum free fatty acid (serum lipids; [15]): 133.0 % of control
- Serum triglyceride (serum lipids; [15]): 186.8 % of control
- Serum cholesterol (serum lipids; 50 mg/kg daily, 4 months, 8 rats, * = significant, p < 0.05 vs. diabetic control): 150.0 % of control
- hyperlipidemia / serum triglyceride tendency (in words) (serum lipids): increased tendency of hyperlipidemia
- kidney histology: diffuse glomerulosclerosis and tubular alterations (in words) (kidneys): to some extent, deteriorated
- Fed blood glucose level at the end of the experiment (blood glucose [6]; 50 mg/kg daily oral, 4 months): 447 ± 15 mg/dL
